The record followed here is patent US20220267258A1, “ROBENIDINE ANALOGS AS POTENT ANTIMALARIALS AGAINST DRUG-RESISTANT PLASMODIUM FALCIPARUM” (OREGON HEALTH & SCIENCE UNIVERSITY, priority 2021, published 2022).

Counter-ions that a name gives are not always drawn. Like-named read-outs stand apart in the source and are kept apart here.

For data set [1], the system named is human hepatoma derived HepG2 cells. Put plainly: HepG2 cytotoxicity assay (resazurin). The class given is cell-based. The note with it: HepG2, 24 hr drug, 24 hr recovery. The procedure: (§1) In this assay, HepG2 cells were incubated with test compounds for 24 hours, followed by a 24-hour recovery period and subsequent staining to evaluate for cytotoxic effects with resazurin. The ratio of the resulting HepG2 IC50 value to the P. falciparum D6 IC50 value can be considered an ‘in vitro therapeutic index,’ or IVTI.
(§2) Compounds were prepared as 10 mM stock solutions in DMSO. […] HepG2 cells were added to each well of flat bottom 96-well tissue culture plates at an initial density of 2×10^4 cells per well, and an initial volume of 160 μL complete medium per well. After an overnight incubation at 37° C. to adhere the cells to the culture plates, 40 μL drug solutions in complete medium were applied to each well at a final concentration range of 0 to 200 μM across each plate. Drugs were tested in triplicate or quadruplicate. The cells were incubated for 24 hours at 37° C. and 5% CO2 with the drug solutions, which were then aspirated and replaced with 200 μL per well of complete medium for an additional 24 hour incubation under the same conditions. To each well was added 20 μL of resazurin (Alamar Blue) in PBS buffer to a final concentration of 10 μM, and the plates were incubated for 3 hours. Fluorescence was measured at 560 nm excitation and 590 nm emission bands using a Spectramax iD3 plate reader. Fluorescence readings were normalized with respect to the untreated control wells and plotted against the logarithm of drug concentration.
For orientation: The colour change of resazurin is a common sign of viable cells or microbes.

The subject of data set [2] is P. falciparum Dd2. In words: SYBR Green growth inhibition assay, P. falciparum Dd2. In kind it is cell-based, Plasmodium falciparum. The settings on record: read-out: IC50 Dd2. As to the method: (§3) In addition to the drug-sensitive P. falciparum D6 strain, the aminoguanidines were assessed against three drug-resistant strains (Tables 1-3).
(§4) The following parasite strains were used in this study and obtained through BEI Resources, NIAID, NIH. […] The culture medium used was RPMI-1640, supplemented with 25 mM HEPES buffer, 25 mg/L gentamicin sulfate, 45 mg/L hypoxanthine, 10 mM glucose, 2 mM glutamine, and 0.5% Albumax II (complete medium).^43 Cultures were maintained in a standard low oxygen atmosphere (5% O2, 5% CO2, 90% N2) in an environmental chamber and incubated at 37° C. Cultures were sub-passaged every 3-4 days into a fresh culture flask containing complete media and erythrocytes.
(§5) The aminoguanidine series was assessed for in vitro antiplasmodial activity using the fluorescence-based SYBR Green assay described previously by Smilkstein and co-workers.^38 Compounds were evaluated in quadruplicate in flat-bottomed Costar clear 96-well plates (Model #3585). A two-fold serial dilution of each compound was performed across the columns of the test plates starting with 20 μM and ending with a final untreated column to serve as control wells. Asynchronous parasite infected erythrocytes in growth media were added to each well for a total volume of 100 μL, final hematocrit of 2%, and initial parasitemia of 0.2%. The commercial malaria drugs atovaquone and chloroquine were used as control drugs. Test plates were incubated for 72 hr at 37° C. in an environmental chamber with a controlled low oxygen atmosphere (5% O2, 5% CO2, 90% N2). After the incubation period, 100 μL SYBR Green I dye-detergent solution was added to each well, and the plates were incubated at ambient temperature and atmosphere in the dark for at least one hour. Fluorescence was read at 497 nm excitation and 520 nm emission bands using a Spectramax iD3 plate reader. Fluorescence readings were normalized with respect to the untreated control wells representing normal parasite growth and plotted against the logarithm of drug concentration.

The test system of data set [3] is P. falciparum A6. In words: SYBR Green growth inhibition assay, P. falciparum A6. In kind it is cell-based, Plasmodium falciparum. The note with it: read-out: IC50 A6. The procedure: as §3, §4, §5
In data set [4] the test system is P. falciparum strain D6. Put plainly: SYBR Green growth inhibition assay, P. falciparum D6. In kind it is cell-based, Plasmodium falciparum. The note with it: read-out: IC50 D6. The procedure:
The in vitro activity of each compound in the aminoguanidine library was assessed against asynchronous cultures of Plasmodium falciparum parasites replicating within human erythrocytes (Tables 1-3). As the chemical development of robenidine was not discussed in its original publication in 1970^4 and limited structural information is available regarding its mechanism of action,^10 profiling was guided primarily by in vitro potency against the P. falciparum D6 strain cultured in human erythrocytes as described above.
as §4
as §5, with “The commercial malaria drugs atovaquone and chloroquine were used as control drugs.” left out

The test system of data set [5] is P. falciparum Tm90-C2B. Put plainly: SYBR Green growth inhibition assay, P. falciparum Tm90-C2B. The class given is cell-based, Plasmodium falciparum. The note with it: read-out: IC50 Tm90-C2B. As to the method: as §3, §4, §5
The subject of data set [6] is Plasmodium yoelii. Put plainly: modified 4-day Peters test, murine malaria. The note with it: 4-day oral dosing, 0% parasitemia at day 30. The class given is in vivo, mice. As to the method: In this modified 4-day Peters test,^41 mice were inoculated with parasites from a donor mouse (day 0), and then dosed orally with drugs on each of the subsequent four days (days 1-4). On day 5 of the experiment, the parasitemia for each mouse was determined microscopically by examining methanol-fixed and Giemsa-stained blood smears. The ED50 represents the interpolated dose of a compound at which parasitemia was suppressed to one half that of untreated controls. Similarly, the ED90 represents the dose at which parasitemia is suppressed ten-fold. Mice were considered cured of their infection if no parasites were detected in the blood 30 days from the first drug administration, and the non-recrudescence dose (NRD) represents the lowest dose to achieve a cure.
The in vivo ED50 and ED90 of selected aminoguanidines was measured using a modified 4-day Peters test. Female CF1 mice from Charles River Laboratories were inoculated intravenously with approximately 2.5-5.0×10^4 parasitized erythrocytes (murine malaria P. yoelii, Kenya strain MR4 MRA-428) from a donor mouse (experiment day zero). On the following four days (experiment days 1-4), solutions of the test compounds in PEG-300 (or PEG-300 only for control mice) were administered by oral gavage once daily. […] Parasitemia of each mouse was determined by microscopic examination of Giemsa stained blood smears on day 5. ED50 and ED90 values were assessed by generating dose-response curves relative to untreated controls using Graphpad Prism (v. 8). Mice were considered cured of malarial infection if they maintained 0% parasitemia at experiment day 30. The procedures involved, together with all matters relating to the care, handling, and housing of the animals used in this study, were approved by the Portland VA Medical Center Institutional Animal Care and Use Committee.

Data set [7] in a line: HepG2 cytotoxicity assay (resazurin). The class given is cell-based, human. The settings on record: human, HepG2 cells; HepG2, 24 hr drug, 24 hr recovery. The procedure: as §1, §2
The mark [8] stands for this setting: Plasmodium falciparum, DD2, 72 h.
Where [9] appears, read: Plasmodium falciparum, TM90, 72 h.
Setting [10] is: Plasmodium falciparum, D6, Erythrocyte, 72 h.
Setting [11] is: multi-drug resistant strain, 72 hr.
The mark [12] stands for this setting: mutant line resistant to respiratory antagonists, 72 hr.
Where [13] appears, read: pan-sensitive strain, 72 hr, asynchronous cultures in human erythrocytes.
Where [14] appears, read: multi-drug resistant clinical isolate, also atovaquone resistant, 72 hr.

`O=C1C(O)=C([C@H]2CC[C@H](c3ccc(Cl)cc3)CC2)C(=O)c2ccccc21` [Atovaquone, reference compound]: the IC50 – broadly, the concentration that inhibits the measured activity by half – was 72000 nM in data set [1]; less than 1 nM in data set [2] (setting [8]); more than 5000 nM in data set [3] (Plasmodium falciparum, 72 h); less than 1 nM in data set [4] (Plasmodium falciparum, D6, Erythrocyte, pan-sensitive strain, 72 hr, asynchronous cultures in human erythrocytes); more than 5000 nM in data set [5] (setting [9]).
Consider `CCN(CC)CCCC(C)Nc1ccnc2cc(Cl)ccc12` (centres unmarked) [Chloroquine, reference compound], for which the IC50 amounted to 181000 nM in data set [1]; 70 nM in data set [2] (setting [8]); 16 nM in data set [3] (Plasmodium falciparum, 72 h); 297 nM in data set [5] (setting [9]). Moreover, in data set [6], the “cure in this model” value is listed as “not curative”.
For the compound `N#Cc1ccccc1/C=N/NC(=N)N/N=C/c1ccccc1C#N` [Compound 20], the IC50 at 24 h in data set [7] is 31000 nM. The IC50 turned out to be 2100 nM in data set [2] (setting [8]); 969 nM in data set [3] (Plasmodium falciparum, 72 h); 1020 nM in data set [4] (setting [10]); 1990 nM in data set [5] (setting [9]).
Taken in the same sequence, the figures for `N=C(N/N=C/c1ccccc1)N/N=C/c1ccccc1` [Compound 24] were more than 200000 nM, 4300 nM, 581 nM, 705 nM and more than 5000 nM.
For `N=C(N/N=C/c1ccc(O)cc1)N/N=C/c1ccc(O)cc1` [Compound 25] the same measures were 39000 nM, 240 nM, 278 nM, 143 nM and 286 nM.
In data set [7], `N=C(N/N=C/c1ccc(-c2ccccc2)cc1)N/N=C/c1ccc(-c2ccccc2)cc1` [Compound 26] gave a half-inhibitory concentration (IC50) at 24 h of more than 200000 nM. The IC50 turned out to be 87 nM in data set [2] (setting [8]); 33 nM in data set [3] (Plasmodium falciparum, 72 h); 15 nM in data set [4] (setting [10]); 71 nM in data set [5] (setting [9]).
For `N=C(NN=Cc1ccc([N+](=O)[O-])cc1)NN=Cc1ccc([N+](=O)[O-])cc1` [Compound 27], the IC50 in data set [1] was more than 200000 nM; in data set [2] (setting [11]) it was 198 nM; in data set [3] (setting [12]), 85 nM; in data set [4] (setting [13]), 96 nM; in data set [5] (setting [14]) it was 247 nM.
In data set [7], `CN(C)c1ccc(/C=N/NC(=N)N/N=C/c2ccc(N(C)C)cc2)cc1` [Compound 28] showed an IC50 at 24 h of 20000 nM. The concentration for half-maximal inhibition (IC50) in data set [2] (setting [8]) amounted to 264 nM; in data set [3] (Plasmodium falciparum, 72 h), 122 nM; in data set [4] (setting [10]), 118 nM; in data set [5] (setting [9]), 213 nM.
In the case of `N=C(NN=Cc1ccc(S(N)(=O)=O)cc1)NN=Cc1ccc(S(N)(=O)=O)cc1` [Compound 31], the IC50 in data set [1] was more than 200000 nM; in data set [2] (setting [11]) it was more than 5000 nM; in data set [3] (setting [12]), more than 5000 nM; in data set [4] (setting [13]), more than 5000 nM; in data set [5] (setting [14]) it was more than 5000 nM.
On to `CC#COc1ccc(/C=N/NC(=N)N/N=C/c2ccc(OC#CC)cc2)cc1` [Compound 32], for which the IC50 at 24 h in data set [7] was more than 200000 nM. Moreover, the IC50 in data set [2] (setting [8]) came out at 199 nM; in data set [3] (Plasmodium falciparum, 72 h) it was 153 nM; in data set [4] (setting [10]) it was 102 nM; in data set [5] (setting [9]), 376 nM.
Taken in the same sequence, the figures for `N=C(N/N=C/c1ccc(N2CCOCC2)cc1)N/N=C/c1ccc(N2CCOCC2)cc1` [Compound 33] were more than 200000 nM, 329 nM, 116 nM, 131 nM and 295 nM.
For the compound `N=C(NN=Cc1ccc2c(c1)OC(F)(F)O2)NN=Cc1ccc2c(c1)OC(F)(F)O2` [Compound 36, 2,2′-Bis{[4-(2,2-difluoro-2,3-dioxazolo)]phenyl}methylene]carbonimidic Dihydrazide Hydrochloride], the IC50 in data set [1] is more than 200000 nM; in data set [2] (setting [11]), 800 nM; in data set [3] (setting [12]), 235 nM; in data set [4] (setting [13]) it was 250 nM; in data set [5] (setting [14]) it was 905 nM.
`N=C(N/N=C/c1ccccc1)N/N=C/c1ccccc1F` [Compound 38]: the IC50 at 24 h in data set [7] was more than 200000 nM. Further, the IC50 is 2200 nM in data set [2] (setting [8]); 833 nM in data set [3] (Plasmodium falciparum, 72 h); 1030 nM in data set [4] (setting [10]); more than 5000 nM in data set [5] (setting [9]).
